Reference: patent US20100190788A1, “Amide derivatives as kinase inhitors” (priority 2005, published 2010)
Structures can show the parent of a compound that is named as a salt.

What follows are compounds tested against T1, human ROCKα/ROCKII mix (Homo sapiens, UniProt O75116) (assay: ROCK inhibition, fluorescence polarization (FP) assay with ROCK IMAP Kit). Settings: Table 1, compounds of Formula IV20.
T1 construct: purchased Upstate Biotechnology 14-451
Assay type: biochemical
Description: The compounds were tested for inhibition of human ROCKα/ROCKII mix.
The inhibition assays were performed with a fluorescence polarization (FP) assay using the commercially available ROCK IMAP Kit from Molecular Devices (Product ID. No. R8093), essentially in accordance with the protocol supplied by the manufacturer. […] The enzyme mix ROCKα/ROCKII was obtained from Upstate Biotechnology (Product ID No 14-451).
In summary, all compounds were screened in the wells of a 384 well plate for enzymatic inhibition with concentrations varying from 100 μM to 0.3 nM using a stepwise 3 (or 2)-fold dilution.
To perform the assay, 1 μl of a solution of the compound to be tested in DMSO (at each concentration) was added to 2 μl of a solution of the enzyme in 10 mM Tris-HCl, 10 mM MgCl2, 0.1% BSA, 0.05% NaN3, pH 7.2. The final concentration of the enzyme was 2.6 nM.
After incubating for 30 minutes at RT, 2 μl of a mixture of ATP and the protein substrate in 10 mM Tris-HCl, 10 mM MgCl2, 0.1% BSA, 0.05% NaN3, pH 7.2 was added. The final concentration of the ATP was 10 μM and final concentration of protein substrate was 0.2 μM.
After incubating for 60 minutes at RT, 12 μl of the IMAP Binding Solution (mix of the IMAP Binding Buffer A (1×) and the IMAP Binding Reagent (from the ROCK IMAP kit)) was added.
The mixture thus obtained (total volume: 17 μl) was incubated for 60 minutes at RT, upon which the fluorescence polarization was measured using an automated plate reader (Perkin Elmer, Model Envision 2100-0010 HTS) with FP filters: excitation filter FITC FP 480 and emission filters FITC FP P-pol 535 and FITC FP S-pol 535 (Perkin-Elmer). The results were fitted to a curve using the XL-Fit algorithm and IC50 values were calculated for each fitted curve, again using the XL-Fit algorithm.

T1 sequence (O75116 whole entry): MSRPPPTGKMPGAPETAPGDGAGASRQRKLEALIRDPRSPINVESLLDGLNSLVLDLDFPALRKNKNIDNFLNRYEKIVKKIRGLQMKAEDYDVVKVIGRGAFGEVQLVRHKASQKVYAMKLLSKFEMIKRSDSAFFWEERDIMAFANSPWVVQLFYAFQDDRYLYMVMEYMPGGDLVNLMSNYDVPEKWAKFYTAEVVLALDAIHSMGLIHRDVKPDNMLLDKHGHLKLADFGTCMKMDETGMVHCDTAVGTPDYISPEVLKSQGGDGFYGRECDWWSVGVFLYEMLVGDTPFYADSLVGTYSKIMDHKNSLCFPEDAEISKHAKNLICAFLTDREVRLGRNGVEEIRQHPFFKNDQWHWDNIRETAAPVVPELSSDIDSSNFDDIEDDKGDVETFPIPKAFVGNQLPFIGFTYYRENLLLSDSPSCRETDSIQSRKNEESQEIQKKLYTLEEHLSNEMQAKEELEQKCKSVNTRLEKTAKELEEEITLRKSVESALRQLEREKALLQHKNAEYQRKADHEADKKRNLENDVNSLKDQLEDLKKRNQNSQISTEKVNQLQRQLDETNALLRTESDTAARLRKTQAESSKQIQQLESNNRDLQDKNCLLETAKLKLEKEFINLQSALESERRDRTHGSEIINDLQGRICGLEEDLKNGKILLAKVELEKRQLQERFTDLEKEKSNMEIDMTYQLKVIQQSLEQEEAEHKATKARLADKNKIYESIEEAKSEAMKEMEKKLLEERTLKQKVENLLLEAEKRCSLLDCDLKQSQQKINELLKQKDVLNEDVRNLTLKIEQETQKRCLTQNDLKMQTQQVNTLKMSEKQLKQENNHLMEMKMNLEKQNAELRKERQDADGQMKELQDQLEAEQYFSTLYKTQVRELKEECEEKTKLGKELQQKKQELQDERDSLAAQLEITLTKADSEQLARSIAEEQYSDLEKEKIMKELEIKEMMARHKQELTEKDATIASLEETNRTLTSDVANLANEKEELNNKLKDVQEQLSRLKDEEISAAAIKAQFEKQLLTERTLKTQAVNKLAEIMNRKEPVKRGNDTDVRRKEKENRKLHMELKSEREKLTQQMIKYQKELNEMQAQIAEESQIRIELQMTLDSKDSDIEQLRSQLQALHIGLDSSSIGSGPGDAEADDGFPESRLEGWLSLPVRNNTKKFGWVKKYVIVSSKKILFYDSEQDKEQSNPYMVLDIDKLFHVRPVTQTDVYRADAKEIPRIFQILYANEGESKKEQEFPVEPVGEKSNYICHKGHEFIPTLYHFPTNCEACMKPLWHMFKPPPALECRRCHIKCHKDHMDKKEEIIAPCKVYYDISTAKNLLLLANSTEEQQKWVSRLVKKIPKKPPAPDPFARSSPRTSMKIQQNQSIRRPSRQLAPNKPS

Q: With CCNC(=O)C(N)c1ccc(C(=O)Nc2ccncc2)cc1 (stereo not shown) [Compound 22, 4-(amino-ethylcarbamoyl-methyl)-N-pyridin-4-yl-benzamide] as the compound, how does the IC50 read?
A: The IC50 was 0.5 to 5 µM.

Q: Which IC50 does the source give for NC(C(=O)N1CCN(c2ccccc2)CC1)c1ccc(C(=O)Nc2ccncc2)cc1 (stereo not shown) [Compound 47, 4-[1-amino-2-oxo-2-(4-phenyl-piperzin-1-yl)-ethyl]-N-pyridin-4-yl-benzamide] here?
A: Its IC50 is 0.5 to 5 µM.

Q: For NC(C(=O)NCc1ccccn1)c1ccc(C(=O)Nc2ccncc2)cc1 (stereo not shown) [Compound 10, 4-{amino-[(pyridin-2-ylmethyl)-carbamoyl]-methyl}-N-pyridin-4-yl-benzamide], which IC50 is on record?
A: The IC50 was 0.5 to 5 µM.

Q: Cc1ccc(CN2CCC(NC(=O)C(N)c3ccc(C(=O)Nc4ccncc4)cc3)CC2)s1 (stereo not shown) [Compound 53, 4-{amino-[1-(5-methyl-thiophen-2-ylmethyl)-piperidin-4-ylcarbamoyl]-methyl}-N-pyridin-4-yl-benzamide] was tested. Which IC50 did it give?
A: The IC50 was 0.5 to 5 µM.

Q: COc1ccc(CNC(=O)C(N)c2ccc(C(=O)Nc3ccncc3)cc2)cc1 (stereo not shown) [Compound 8, 4-[amino-(4-methoxy-benzylcarbamoyl)-methyl]-N-pyridin-4-yl-benzamide] was tested. Which IC50 did it give?
A: Its IC50 is < 0.5 µM.

Q: Which IC50 does the source give for NC(C(=O)NCCc1cccs1)c1ccc(C(=O)Nc2ccncc2)cc1 (stereo not shown) [Compound 17, 4-[amino-(2-thiophen-2-yl-ethylcarbamoyl)-methyl]-N-pyridin-4-yl-benzamide] here?
A: The IC50 was < 0.5 µM.

Q: Which IC50 does the source give for CC[C@H](NC(=O)C(N)c1ccc(C(=O)Nc2ccncc2)cc1)c1ccccc1 (stereo partly drawn) [Compound 5, 4-[amino-(1-(S)-phenyl-propylcarbamoyl)-methyl]-N-pyridin-4-yl-benzamide] here?
A: The IC50 was 0.5 to 5 µM.

Q: For NC(C(=O)N1CC=C(c2ccc(F)cc2)CC1)c1ccc(C(=O)Nc2ccncc2)cc1 (stereo not shown) [Compound 29, 4-{1-amino-2-[4-(4-fluoro-phenyl)-3,6-dihydro-2H-pyridin-1-yl]-2-oxo-ethyl}-N-pyridin-4-yl-benzamide], which IC50 is on record?
A: The IC50 was 0.5 to 5 µM.

Q: With NC(C(=O)N1CCC(c2ccccc2)CC1)c1ccc(C(=O)Nc2ccncc2)cc1 (stereo not shown) [Compound 28, 4-[1-amino-2-(4-phenyl-piperidin-1-yl)-2-oxo-ethyl]-N-pyridin-4-yl-benzamide] as the compound, how does the IC50 read?
A: Its IC50 is 0.5 to 5 µM.

Q: For NC(C(=O)NCCN1CCOCC1)c1ccc(C(=O)Nc2ccncc2)cc1 (stereo not shown) [Compound 45, 4-[amino-(2-morpholin-4-yl-ethylcarbamoyl)-methyl]-N-pyridin-4-yl-benzamide], which IC50 is on record?
A: Its IC50 is 0.5 to 5 µM.

Q: With NC(C(=O)NC1CCCCC1)c1ccc(C(=O)Nc2ccncc2)cc1 (stereo not shown) [Compound 32, 4-(amino-cyclohexylcarbamoyl-methyl)-N-pyridin-4-yl-benzamide] as the compound, how does the IC50 read?
A: Its IC50 is 0.5 to 5 µM.

Q: With NC(C(=O)N1CCC(Cc2ccccc2)CC1)c1ccc(C(=O)Nc2ccncc2)cc1 (stereo not drawn) [Compound 31, 4-[1-amino-2-(4-benzyl-piperidin-l-yl)-2-oxo-ethyl]-N-pyridin-4-yl-benzamide] as the compound, how does the IC50 read?
A: Its IC50 is 0.5 to 5 µM.

Q: With NC(C(=O)N1CCOCC1)c1ccc(C(=O)Nc2ccncc2)cc1 (stereo not shown) [Compound 34, 4-(1-amino-2-mopholin-4-yl-2-oxo-ethyl)-N-pyridin-4-yl-benzamide] as the compound, how does the IC50 read?
A: The IC50 was < 0.5 µM.

Q: Which IC50 does the source give for COc1ccc(NC(=O)C(N)c2ccc(C(=O)Nc3ccncc3)cc2)cc1 (stereo not shown) [Compound 21] here?
A: Its IC50 is < 0.5 µM.

Q: With COc1ccccc1CNC(=O)C(N)c1ccc(C(=O)Nc2ccncc2)cc1 (stereo not shown) [Compound 9, 4-(amino-(2-methoxy-benzylcarbamoyl)-methyl]-N-pyridin-4-yl-benzamide] as the compound, how does the IC50 read?
A: Its IC50 is < 0.5 µM.

Q: How did the IC50 turn out when CCC(NC(=O)C(N)c1ccc(C(=O)Nc2ccncc2)cc1)c1ccccc1 (stereo not shown) [Compound 4, 4-[amino-(1-phenyl-propylcarbamoyl)-methyl]-N-pyridin-4-yl-benzamide] was run?
A: The IC50 was < 0.5 µM.

Q: NC(C(=O)Nc1ccccc1)c1ccc(C(=O)Nc2ccncc2)cc1 (stereo not shown) [Compound 20, 4-(amino-phenylcarbamoyl-methyl)-N-pyridin-4-yl-benzamide] was tested. Which IC50 did it give?
A: Its IC50 is 0.5 to 5 µM.

Q: For CC(C)C(C)NC(=O)C(N)c1ccc(C(=O)Nc2ccncc2)cc1 (stereo not shown) [Compound 23, 4-[amino-(1,2-dimethyl-propylcarbamoyl)-methyl]-N-pyridin-4-yl-benzamide], which IC50 is on record?
A: The IC50 was 0.5 to 5 µM.

Q: For NC(C(=O)N1CCC(c2nc3ccccc3o2)CC1)c1ccc(C(=O)Nc2ccncc2)cc1 (stereo not shown) [Compound 30, 4-[1-amino-2-(4-benzooxazol-2-yl-piperidin-1-yl)-2-oxo-ethyl]-N-pyridin-4-yl-benzamide], which IC50 is on record?
A: Its IC50 is < 0.5 µM.

Q: How did the IC50 turn out when CONC(=O)C(N)c1ccc(C(=O)Nc2ccncc2)cc1 (stereo not shown) [Compound 41, 4-(amino-methoxycarbamoyl-methyl)-N-pyridin-4-yl-benzamide] was run?
A: Its IC50 is 0.5 to 5 µM.

Same assay, conditions: Table 2, compounds of Formula V20

Q: Which IC50 does the source give for CCS(=O)(=O)NCC(N)c1ccc(C(=O)Nc2ccncc2)cc1 (stereo not shown) [Compound 56] here?
A: Its IC50 is < 0.5 µM.

Q: Which IC50 does the source give for COc1ccc(OC)c(S(=O)(=O)NCC(N)c2ccc(C(=O)Nc3ccncc3)cc2)c1 (stereo not shown) [Compound 72, 4-[1-amino-2-(2,5-dimethoxy-benzenesulfonylamino)-ethyl]-N-pyridin-4-yl-benzamide] here?
A: Its IC50 is < 0.5 µM.

Q: NC(CNS(=O)(=O)c1cccc(Oc2ccccc2)c1)c1ccc(C(=O)Nc2ccncc2)cc1 (stereo not shown) [Compound 73, 4-[1-amino-2-(3-phenoxy-benzenesulfonylamino)-ethyl]-N-pyridin-4-yl-benzamide] was tested. Which IC50 did it give?
A: Its IC50 is 0.5 to 5 µM.

Same assay, conditions: Table 3, compounds of Formula III20

Q: COc1ccc(CN2CCN(C(=O)CC(N)c3ccc(C(=O)Nc4ccncc4)cc3)CC2)cc1 (stereo not shown) [Compound 121, 4-{1-Amino-3-[4-(4-methoxy-benzyl)-piperazin-1-yl]-3-oxo-propyl}-N-pyridin-4-yl-benzamide] was tested. Which IC50 did it give?
A: Its IC50 is 0.5 to 5 µM.

Q: For CC1CC(C)CN(C(=O)CC(N)c2ccc(C(=O)Nc3ccncc3)cc2)C1 (stereo not shown) [Compound 108, 4-[1-amino-3-(3,5-dimethyl-piperidin-1-yl)-3-oxo-propyl]-N-pyridin-4-yl-benzamide], which IC50 is on record?
A: The IC50 was < 0.5 µM.

Q: NC(CC(=O)N1CCCCC1c1ccc(Cl)cc1)c1ccc(C(=O)Nc2ccncc2)cc1 (stereo not shown) [Compound 94, 4-{1-amino-3-[2-(4-chloro-phenyl)-piperidin-1-yl]-3-oxo-propyl}-N-pyridin-4-yl-benzamide] was tested. Which IC50 did it give?
A: Its IC50 is < 0.5 µM.

Q: How did the IC50 turn out when NC(CC(=O)N1CCCCC1)c1ccc(C(=O)Nc2ccncc2)cc1 (stereo not shown) [Compound 107, 4-(1-amino-3-oxo-3-piperidin-1-yl-propyl)-N-pyridin-4-yl-benzamide] was run?
A: Its IC50 is < 0.5 µM.

Q: NC(CC(=O)N1CCCC1c1ccccc1)c1ccc(C(=O)Nc2ccncc2)cc1 (stereo not shown) [Compound 84, 4-[1-amino-3-oxo-3-(2-phenyl-pyrrolidin-1-yl)-propyl]-N-pyridin-4-yl-benzamide] was tested. Which IC50 did it give?
A: Its IC50 is < 0.5 µM.

Q: How did the IC50 turn out when NC(CC(=O)N1CCN(c2ccccc2)CC1)c1ccc(C(=O)Nc2ccncc2)cc1 (stereo not shown) [Compound 116, 4-[1-amino-3-oxo-3-(4-phenyl-piperazin-1-yl)-propyl]-N-pyridin-4-yl-benzamide] was run?
A: Its IC50 is < 0.5 µM.

Q: NC(CC(=O)N1CCC(c2ccccc2)CC1)c1ccc(C(=O)Nc2ccncc2)cc1 (stereo not shown) [Compound 117, 4-[1-amino-3-(4-phenyl-piperidin-1-yl)-3-oxo-propyl]-N-pyridin-4-yl-benzamide] was tested. Which IC50 did it give?
A: Its IC50 is < 0.5 µM.

Q: With NC(CC(=O)N1CCCC1c1ccc(F)cc1)c1ccc(C(=O)Nc2ccncc2)cc1 (stereo not shown) [Compound 86, 4-{1-amino-3-[2-(4-fluoro-phenyl)-pyrrolidin-1-yl]-3-oxo-propyl}-N-pyridin-4-yl-benzamide] as the compound, how does the IC50 read?
A: The IC50 was < 0.5 µM.

Q: With NC(CC(=O)N1CCOCC1c1ccccc1)c1ccc(C(=O)Nc2ccncc2)cc1 (stereo not shown) [Compound 99, 4-[1-Amino-3-oxo-3-(3-phenyl-morpholin-4-yl)-propyl]-N-pyridin-4-yl-benzamide] as the compound, how does the IC50 read?
A: The IC50 was < 0.5 µM.

Same assay, conditions: Table 4, compounds 132 to 156

Q: CN(CC(N)c1ccc(C(=O)Nc2ccncc2)cc1)S(=O)(=O)c1cccc(F)c1 (stereo not shown) [Compound 141, 4-{1-Amino-2-[(3-fluoro-benzenesulfonyl)-methyl-amino]-ethyl}-N-pyridin-4-yl-benzamide dihydrochloric acid salt] was tested. Which IC50 did it give?
A: Its IC50 is 0.5 to 5 µM.

Q: How did the IC50 turn out when COc1ccc(S(=O)(=O)N2CCCC2C(N)c2ccc(C(=O)Nc3ccncc3)cc2)cc1 (stereo not shown) [Compound 132, 4-{Amino-[1-(4-methoxy-benzenesulfonyl)-pyrrolidin-2-yl]-methyl}-N-pyridin-4-yl-benzamide dihydrochloric acid salt] was run?
A: Its IC50 is 0.5 to 5 µM.

Q: Which IC50 does the source give for CN(CC(N)c1ccc(C(=O)Nc2ccncc2)cc1)S(=O)(=O)c1cccc(Cl)c1 (stereo not shown) [Compound 144, 4-{1-Amino-2-[(3-chloro-benzenesulfonyl)-methyl-amino]-ethyl}-N-pyridin-4-yl-benzamide dihydrochloric acid salt] here?
A: Its IC50 is 0.5 to 5 µM.

Q: How did the IC50 turn out when NC(c1ccc(C(=O)Nc2ccncc2)cc1)C1CCCN1S(=O)(=O)c1cccc(F)c1 (stereo not shown) [Compound 137, 4-{Amino-[1-(3-fluoro-benzenesulfonyl)-pyrrolidin-2-yl]-methyl}-N-pyridin-4-yl-benzamide dihydrochloric acid salt] was run?
A: Its IC50 is 0.5 to 5 µM.

Q: Which IC50 does the source give for N[C@@H](CC(=O)N1CCC[C@@H]1c1cccc(F)c1)c1ccc(C(=O)Nc2ccncc2)cc1 [Compound 151, 4-{(S)-1-Amino-3-[(R)-2-(3-fluoro-phenyl)-pyrrolidin-1-yl]-3-oxo-propyl}-N-pyridin-4-yl-benzamide dihydrochloric acid salt] here?
A: Its IC50 is < 0.5 µM.
